Holding throughout (design): species or system rat
The subject of experiment [1] is large intestinal peristaltic motility. The experiment is described as follows: Test 1: action of each Daikenchuto component on peristaltic motility of the isolated intestine in an organ bath. Conditions: for AUC (area under curve peak) / Mean-PPA (mean of peak pressure amplitude) / PF (peak frequency): value before addition = 100%. As for the experimental part: Investigation of the Action of Each Crude Drug Component Contained in Daikenchuto on the Large Intestinal Peristaltic Motility:
Rats were used as experimental animals. According to the following way, the components contained in Daikenchuto, i.e., HAS, 6-shogaol (hereinafter abbreviated as “6-S”) and 6-gingerol (hereinafter abbreviated as “6-G”), were tested for the action on the peristaltic motility.
Male SD rats (provided by Japan Charles River Co.; SPF animals) were obtained at 6 weeks of age (body weight: 190-220 g) and the test was started at 7-9 weeks of age (body weight: 220-280 g at acquisition and using). Breeding was conducted at a temperature of 20-26° C. and a humidity of 35-75%, in aeration frequency of 15-25/hour in a cage under lighting for 12 hours (7 o'clock to 19 o'clock) per day, wherein 4 rats were placed in a cage. For feeding, solid feed MF (Oriental Yeast Co., Ltd.) was used, and the rats were able to freely drink ordinary tap water (Amimachi, Ibaraki Pref).
(§1) Normal rats which fasted overnight with free access to water were decapitated for mercy killing. Immediately, the intestine was removed and cut into 3-4 cm pieces, which were used as test samples. The removed test samples were immersed in an organ bath (perfusion rate: 3.5 mL/min) filled with a Krebs solution warmed at 32-33° C. and saturated with 95% O2/5% CO2 gas mixture. […] From the mouth side, physiological saline was injected at a certain rate (0.15 mL/min), and the frequency and amplitude of the pressure change in the lumen caused by the intestinal peristaltic motility were measured by means of a microchip pressure transducer (SPR-524, Millar Instruments Co.). After confirmation of the stabilized peristaltic motility in the test samples (intestinal tract), a test drug was added to the organ bath. Before and after the addition, the change of peristaltic motility for 10 minutes was determined by using recorded wave profile for the mean peak pressure amplitude (mean-PPA), the area under curve (AUC) of the peak and the peak frequency (PF) in the transducer. The resulting recorded wave profile was converted into numerical terms as the amplitude or frequency of the peristaltic motility by an analysis software. The value before the addition of the test drug was regarded as 100% for comparison and evaluation.

Experiment [2] has as its system intestinal peristaltic motility. The experiment is described as follows: Test 2: peristaltic motility, combinations of HAS with 6-S or 6-G, same manner as Test 1. Conditions: for AUC (area under curve peak) / Mean-PPA (mean of peak pressure amplitude) / PF (peak frequency): value before addition = 100%; for enhancement of the prokinetic effect on peristaltic motility by combining with HAS (in words): combined with HAS at a dose too low to exert the effect when used alone. Here is the method:
as §1
On the basis of the prokinetic effect of HAS, 6-S and 6-G on peristaltic motility in Test 1, the change of the prokinetic effect in a combination of these compounds was investigated in the same manner as in Test 1.

The test system is the same in experiment [3]. The experiment is described as follows: Test 4: peristaltic motility, HAS and bethanechol chloride alone and combined, same manner as Test 1. As to conditions: for AUC (area under curve peak) / Mean-PPA (mean of peak pressure amplitude) / PF (peak frequency): value before addition = 100%. As for the experimental part: as §1, with “After confirmation of the stabilized peristaltic motility in the test samples (intestinal tract), a test drug was added to the organ bath. Before and after the addition, the change of peristaltic motility for 10 minutes was determined by using recorded wave profile for the mean peak pressure amplitude (mean-PPA), the area under curve (AUC) of the peak and the peak frequency (PF) in the transducer.” left out

For experiment [4] the test system is unchanged. Description: Test 3: peristaltic motility, HAS and CAP alone and combined, same manner as Test 1. As to conditions: for AUC (area under curve peak) / Mean-PPA (mean of peak pressure amplitude) / PF (peak frequency): value before addition = 100%. As for the experimental part: as §1
The respective prokinetic effect of HAS and CAP on peristaltic motility and change of the effect in a combination of these compounds were investigated in the same manner as in Test 1.

The mark [5] stands for this setting: HAS 3 μM + CAP 0.03 μM versus CAP alone.

With `CCCCC[C@H](O)CC(=O)CCc1ccc(O)c(OC)c1` [6-G, 6-gingerol], in experiment [1] (1 μM), the “prokinetic effect on peristaltic motility (in words)” value is reported as “weak prokinetic effect”, the “AUC (area under curve peak)” value amounted to 120.5%, the “Mean-PPA (mean of peak pressure amplitude)” value (“Mean-PPA” for short) was 141.1% and the “PF (peak frequency)” value worked out at 115.0%. For the same compound, in experiment [1] (10 μM), the “prokinetic effect on peristaltic motility (in words)” value is listed as “significant prokinetic effect”, the “AUC (area under curve peak)” value amounted to 188.2%, the “Mean-PPA” value is reported as 304.2% and the “PF (peak frequency)” value turned out to be 76.9%. In addition, in experiment [2] (3 μM), the “AUC (area under curve peak)” value worked out at 174.9%, the “Mean-PPA” value came out at 235.8% and the “PF (peak frequency)” value is recorded as 102.9%. For the same compound, in experiment [2], the “enhancement of the prokinetic effect on peristaltic motility by combining with HAS (in words)” value is given as “potent enhancement”.
For `CCCCC/C=C/C(=O)CCc1ccc(O)c(OC)c1` [6-S, 6-shogaol], in experiment [1] (1 μM), the “prokinetic effect on peristaltic motility (in words)” value is listed as “promoted weakly”, the “AUC (area under curve peak)” value worked out at 133.3%, the “Mean-PPA” value was 202.6% and the “PF (peak frequency)” value stood at 102.6%. In experiment [1] (10 μM), the “prokinetic effect on peristaltic motility (in words)” value was “prokinetic effect disappeared”, the “AUC (area under curve peak)” value is given as 73.4%, the “Mean-PPA” value is reported as 94.6% and the “PF (peak frequency)” value was found to be 120.8%. Further, in experiment [2] (1 μM), the “AUC (area under curve peak)” value is listed as 133.3%, the “Mean-PPA” value was 202.6% and the “PF (peak frequency)” value is listed as 115.0%. Moreover, in experiment [2], the “enhancement of the prokinetic effect on peristaltic motility by combining with HAS (in words)” value is recorded as “potent enhancement”.
On to `CC(C[N+](C)(C)C)OC(N)=O` (centres unmarked) [Beth, bethanechol chloride], for which, in experiment [3] (1 μM), the “AUC (area under curve peak)” value turned out to be 87.6%, the “Mean-PPA” value worked out at 98.9% and the “PF (peak frequency)” value is reported as 153.8%.
With `COc1cc(CNC(=O)CCCC/C=C/C(C)C)ccc1O` [CAP, capsaicin], in experiment [4] (0.03 μM), the “AUC (area under curve peak)” value was found to be 147.1%, the “Mean-PPA” value amounted to 143.7% and the “PF (peak frequency)” value stood at 108.1%.
Take `C/C=C/C=C/C=C\CC/C=C/C(=O)NCC(C)(C)O` [HAS, Hydroxy-α-sanshool]: in experiment [1] (3 μM), the “prokinetic effect on peristaltic motility (in words)” value is reported as “no influence”, the “AUC (area under curve peak)” value was 121.5%, the “Mean-PPA” value was determined as 119.5% and the “PF (peak frequency)” value was 98.3%. Also, in experiment [1] (10 μM), the “prokinetic effect on peristaltic motility (in words)” value is recorded as “very strong prokinetic effect”, the “AUC (area under curve peak)” value worked out at 227.9%, the “Mean-PPA” value is recorded as 478.2% and the “PF (peak frequency)” value is recorded as 52.5%. Moreover, in experiment [2] (3 μM), the “AUC (area under curve peak)” value came to 99.0%, the “Mean-PPA” value was determined as 101.2% and the “PF (peak frequency)” value stood at 93.0%. Moreover, in experiment [4] (3 μM), the “AUC (area under curve peak)” value was 110.2%, the “Mean-PPA” value was found to be 105.7% and the “PF (peak frequency)” value was determined as 98.7%. For the same compound, in experiment [4] (setting [5]), the “enhancement by HAS of the increase in AUC induced by CAP” value is given as roughly 4.6 times and the “enhancement by HAS of the increase in PPA induced by CAP” value is recorded as “about 9.8 times”. Also, in experiment [3] (3 μM), the “AUC (area under curve peak)” value is recorded as 130.6%, the “Mean-PPA” value is 105.2% and the “PF (peak frequency)” value was 84.6%. In experiment [3] (HAS 3 μM + Beth 1 μM versus Beth alone), the “enhancement by HAS of the increase in PF induced by Beth” value is listed as “twice or more”.
